From PubChem BioAssay AID248 (DTP/NCI, 2004) come the findings set out here.

SMILES strings stand for the structures. “And” between values parts separate entries of the source, which are not always exact repeats. Equal values may be shown once. Inconclusive results and toxic doses are left out.

The assay has as its system L1210 leukemia ip in BDF1 mice, survival T/C. Kind of assay: NCI In Vivo Anticancer Drug Screen. Data for tumor model L1210 Leukemia (intraperitoneal) in B6D2F1 (BDF1) mice. As to conditions: endpoint: mean survival time, higher = longer survival. The method, boiled down: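 Read-out is survival time, reported as the treated-group measurement over the vehicle-control measurement.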

Setting [1] is: dose: 100.0 mg/kg/injection, schedule: Q01DX009 (ip), vehicle: Klucel (hydroxypropylcellulose) (HPC).
Setting [2] is: dose: 100.0 mg/kg/injection, schedule: Q01DX001 (ip), vehicle: saline.
Where [3] appears, read: dose: 100.0 mg/kg/injection, schedule: Q04DX003 (ip), vehicle: saline.
Where [4] appears, read: dose: 200.0 mg/kg/injection, schedule: Q04DX003 (ip), vehicle: saline.
Setting [5] is: dose: 25.0 mg/kg/injection, schedule: Q01DX009 (ip), vehicle: saline with Tween-80.
Setting [6] is: dose: 50.0 mg/kg/injection, schedule: Q01DX009 (ip), vehicle: saline.
The mark [7] stands for this setting: dose: 100.0 mg/kg/injection, schedule: Q01DX009 (ip), vehicle: saline.
[8] abbreviates: dose: 50.0 mg/kg/injection, schedule: Q01DX009 (ip), vehicle: Klucel (hydroxypropylcellulose) (HPC).
Setting [9] is: dose: 100.0 mg/kg/injection, schedule: Q01DX009 (ip), vehicle: saline with Tween-80.
Where [10] appears, read: dose: 100.0 mg/kg/injection, schedule: Q04DX003 (ip), vehicle: saline with Tween-80.
[11] abbreviates: dose: 200.0 mg/kg/injection, schedule: Q01DX009 (ip), vehicle: saline with Tween-80.
The mark [12] stands for this setting: dose: 200.0 mg/kg/injection, schedule: Q04DX003 (ip), vehicle: saline with Tween-80.
The mark [13] stands for this setting: dose: 400.0 mg/kg/injection, schedule: Q01DX009 (ip), vehicle: saline with Tween-80.
The mark [14] stands for this setting: dose: 400.0 mg/kg/injection, schedule: Q04DX003 (ip), vehicle: saline with Tween-80.

With `CN(C)c1ccc(N=Cc2ccccc2O)cc1.[Co]`, the T/C is 90 % of control (dose: 100.0 mg/kg/injection, schedule: Q01DX001 (ip), vehicle: other); 94 % of control (dose: 200.0 mg/kg/injection, schedule: Q01DX001 (ip), vehicle: other); 91 % of control (dose: 400.0 mg/kg/injection, schedule: Q01DX001 (ip), vehicle: other).

Turning to `COc1ccc2c[n+](C)c3c4cc(OC)c(OC)cc4ccc3c2c1`, the T/C was 105 % of control (dose: 6.25 mg/kg/injection, schedule: Q04DX003 (ip), vehicle: saline with Tween-80); 105 % of control (dose: 12.5 mg/kg/injection, schedule: Q04DX003 (ip), vehicle: saline with Tween-80); 105 % of control (dose: 25.0 mg/kg/injection, schedule: Q04DX003 (ip), vehicle: saline with Tween-80).

Regarding `Nc1ncnc(N)c1NC(=O)c1ccc(SCc2ccccc2)cc1`, the T/C runs as follows: under setting [1], 93 % of control; (dose: 400.0 mg/kg/injection, schedule: Q01DX009 (ip), vehicle: Klucel (hydroxypropylcellulose) (HPC)) 88 % of control.

Turning to `COC(=O)C1=C(C(=O)OC)C2(OC(C)=O)C=C(OC(C)=O)C1C(C)(C)C2` (stereo not drawn), the T/C under setting [2] was 94 % of control; the T/C (dose: 100.0 mg/kg/injection, schedule: Q01DX009 (ip), vehicle: acetone) was 93 % of control; the T/C under setting [3] was 111 % of control; the T/C (dose: 200.0 mg/kg/injection, schedule: Q01DX001 (ip), vehicle: saline) was 102 % of control; the T/C (dose: 200.0 mg/kg/injection, schedule: Q01DX009 (ip), vehicle: acetone) is 90 % of control; the T/C under setting [4] was 103 % of control. In addition, the T/C (dose: 400.0 mg/kg/injection, schedule: Q01DX001 (ip), vehicle: saline) was 102 % of control; the T/C (dose: 400.0 mg/kg/injection, schedule: Q01DX009 (ip), vehicle: acetone) was 88 % of control; the T/C (dose: 400.0 mg/kg/injection, schedule: Q04DX003 (ip), vehicle: saline) was 104 % of control.

For the compound `Cc1cccc(Cl)c1NC1=NCCO1`, the T/C is, setting by setting: (dose: 6.25 mg/kg/injection, schedule: Q01DX009 (ip), vehicle: saline with Tween-80) 93 % of control; (dose: 12.5 mg/kg/injection, schedule: Q01DX009 (ip), vehicle: saline with Tween-80) 102 % of control; under setting [5], 100 % of control.

As to `S=c1cc(-c2ccc(Cl)cc2)ss1`, the T/C under setting [6] was 93 % of control; the T/C under setting [7] was 93 % of control and 90 % of control; the T/C under setting [3] is 92 % of control; the T/C (dose: 200.0 mg/kg/injection, schedule: Q01DX009 (ip), vehicle: saline) was 95 % of control and 90 % of control; the T/C under setting [4] is 100 % of control; the T/C (dose: 300.0 mg/kg/injection, schedule: Q01DX009 (ip), vehicle: saline) is 95 % of control. Where the note is “dose: 400.0 mg/kg/injection, schedule: Q01DX009 (ip), vehicle: saline”, the T/C was 95 % of control.

With `COC1=C(Br)[C@H](O)[C@](O)(CC#N)C=C1Br`, the T/C is 97 % of control (dose: 12.5 mg/kg/injection, schedule: Q01DX009 (ip), vehicle: saline); 97 % of control (dose: 25.0 mg/kg/injection, schedule: Q01DX001 (ip), vehicle: Klucel (hydroxypropylcellulose) (HPC)); 101 % of control (dose: 25.0 mg/kg/injection, schedule: Q01DX009 (ip), vehicle: Klucel (hydroxypropylcellulose) (HPC)); 110 % of control (dose: 25.0 mg/kg/injection, schedule: Q01DX009 (ip), vehicle: saline); 103 % of control (dose: 44.0 mg/kg/injection, schedule: Q01DX001 (ip), vehicle: saline); 104 % of control (dose: 50.0 mg/kg/injection, schedule: Q01DX001 (ip), vehicle: Klucel (hydroxypropylcellulose) (HPC)). Also, the T/C runs as follows: under setting [8], 94 % of control; under setting [6], 107 % of control; (dose: 66.0 mg/kg/injection, schedule: Q01DX001 (ip), vehicle: saline) 106 % of control; under setting [2], 117 % of control and 229 % of control; under setting [1], 108 % of control; under setting [7], 91 % of control. In addition, the T/C (dose: 150.0 mg/kg/injection, schedule: Q01DX001 (ip), vehicle: saline) was 121 % of control.

For `Clc1nc2ccccc2nc1CI`, the T/C by setting is: (dose: 6.25 mg/kg/injection, schedule: Q01DX009 (ip), vehicle: Klucel (hydroxypropylcellulose) (HPC)) 94 % of control; (dose: 12.5 mg/kg/injection, schedule: Q01DX009 (ip), vehicle: Klucel (hydroxypropylcellulose) (HPC)) 102 % of control; under setting [5], 89 % of control; (dose: 25.0 mg/kg/injection, schedule: Q04DX003 (ip), vehicle: Klucel (hydroxypropylcellulose) (HPC)) 102 % of control; (dose: 50.0 mg/kg/injection, schedule: Q04DX003 (ip), vehicle: Klucel (hydroxypropylcellulose) (HPC)) 90 % of control.

`CC1=C(C#N)C(C)(C)c2ccccc21`: the T/C by setting is: (dose: 100.0 mg/kg/injection, schedule: Q04DX002 (ip), vehicle: saline with Tween-80) 110 % of control; (dose: 200.0 mg/kg/injection, schedule: Q04DX002 (ip), vehicle: saline with Tween-80) 100 % of control; (dose: 400.0 mg/kg/injection, schedule: Q04DX002 (ip), vehicle: saline with Tween-80) 100 % of control.

`CC(C)CCCBr`: the T/C runs as follows: under setting [9], 101 % of control; under setting [10], 94 % of control; under setting [11], 100 % of control; under setting [12], 95 % of control; under setting [13], 94 % of control; under setting [14], 99 % of control.

Consider `Cc1nccn1C(/C(=N/O)c1ccccc1)c1ccccc1` (stereo not drawn), for which the T/C under setting [9] is 96 % of control, the T/C under setting [11] is 96 % of control and the T/C under setting [13] was 94 % of control.

Take `COc1cc(C2=N/C(=C\c3cc(Cl)cc(Cl)c3O)C(=O)O2)cc(OC)c1OC`: the T/C runs as follows: (dose: 100.0 mg/kg/injection, schedule: Q04DX002 (ip), vehicle: Klucel (hydroxypropylcellulose) (HPC)) 107 % of control; (dose: 200.0 mg/kg/injection, schedule: Q04DX002 (ip), vehicle: Klucel (hydroxypropylcellulose) (HPC)) 110 % of control; (dose: 400.0 mg/kg/injection, schedule: Q04DX002 (ip), vehicle: Klucel (hydroxypropylcellulose) (HPC)) 100 % of control.

Take `O=c1c(N2CCOCC2)c(N2CCOCC2)c1=O`: the T/C runs as follows: under setting [9], 100 % of control; under setting [10], 104 % of control; under setting [11], 100 % of control; under setting [12], 103 % of control; under setting [13], 100 % of control; under setting [14], 95 % of control.

Turning to `CC(C)(C)OC(=O)NC(CSCc1ccccc1)C(=O)O` (stereo not drawn), the T/C is, setting by setting: under setting [8], 98 % of control; under setting [1], 92 % of control; under setting [9], 91 % of control; (dose: 200.0 mg/kg/injection, schedule: Q01DX009 (ip), vehicle: Klucel (hydroxypropylcellulose) (HPC)) 98 % of control; under setting [11], 89 % of control.

For the compound `COC(C)c1ccccc1` (stereo not drawn), the T/C runs as follows: (dose: 103.0 mg/kg/injection, schedule: Q01DX Z (ip), vehicle: methylcellulose (MC)) 91 % of control; (dose: 155.0 mg/kg/injection, schedule: Q01DX Z (ip), vehicle: methylcellulose (MC)) 96 % of control; (dose: 233.0 mg/kg/injection, schedule: Q01DX Z (ip), vehicle: methylcellulose (MC)) 96 % of control; (dose: 350.0 mg/kg/injection, schedule: Q01DX Z (ip), vehicle: methylcellulose (MC)) 102 % of control.

Regarding `CC(=O)C1(O)CCC2C3CCC4=CC(=O)CCC4(C)C3CC(=O)C21C` (stereo not drawn), the T/C reads like this: (dose: 75.0 mg/kg/injection, schedule: Q01DX001 (ip), vehicle: other) 95 % of control; (dose: 150.0 mg/kg/injection, schedule: Q01DX001 (ip), vehicle: other) 93 % of control; (dose: 300.0 mg/kg/injection, schedule: Q01DX001 (ip), vehicle: other) 95 % of control.
